In patent US20250320193A1, “OXOISOINDOLINYL SUBSTITUTED PIPERIDINEDIONE DERIVATIVE AND USE THEREOF” (GLUETACS THERAPEUTICS (SHANGHAI) CO., LTD., priority 2022, published 2025):

Key:
GSPT1 = GSPT1 (Homo sapiens (Human), UniProt P15170+Q96SW2); assay: Western blot, substrate protein expression in hPBMC: GSPT1; format: cell-based; conditions: hPBMC, compound 500 nM, 24 hours, Western blot
Procedure, shortened: (§1)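 hPBMC, 1×10^6 cells/mL, 24 h compound exposure; RIPA lysis, BCA protein assay, SDS-PAGE, NC membrane immunoblot. Densitometry vs internal control → % protein remaining; degradation % = 100% − remaining; DC50 = conc. at 50% of DMSO band signal.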

IKZF1 = IKZF1 (Homo sapiens (Human), UniProt Q13422+Q96SW2); assay: Western blot, substrate protein expression in hPBMC: IKZF1; format: cell-based; conditions: hPBMC, compound 500 nM, 24 hours, Western blot
Chain of IKZF1 (Q13422 whole entry): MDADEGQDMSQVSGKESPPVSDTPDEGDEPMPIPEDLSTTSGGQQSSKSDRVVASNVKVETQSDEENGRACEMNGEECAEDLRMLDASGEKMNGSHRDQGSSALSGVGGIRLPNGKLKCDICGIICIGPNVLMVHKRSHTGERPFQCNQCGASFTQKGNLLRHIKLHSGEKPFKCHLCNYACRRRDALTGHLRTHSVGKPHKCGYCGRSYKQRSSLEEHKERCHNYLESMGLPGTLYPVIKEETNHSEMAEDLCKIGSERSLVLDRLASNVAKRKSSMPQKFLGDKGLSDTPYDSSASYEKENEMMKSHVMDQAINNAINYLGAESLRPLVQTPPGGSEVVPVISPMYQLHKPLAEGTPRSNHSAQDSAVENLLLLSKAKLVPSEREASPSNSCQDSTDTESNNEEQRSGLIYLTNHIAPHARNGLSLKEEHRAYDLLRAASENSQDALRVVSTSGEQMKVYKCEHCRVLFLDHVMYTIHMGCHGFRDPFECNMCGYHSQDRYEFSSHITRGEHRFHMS
Chain of IKZF1 (Q96SW2 whole entry): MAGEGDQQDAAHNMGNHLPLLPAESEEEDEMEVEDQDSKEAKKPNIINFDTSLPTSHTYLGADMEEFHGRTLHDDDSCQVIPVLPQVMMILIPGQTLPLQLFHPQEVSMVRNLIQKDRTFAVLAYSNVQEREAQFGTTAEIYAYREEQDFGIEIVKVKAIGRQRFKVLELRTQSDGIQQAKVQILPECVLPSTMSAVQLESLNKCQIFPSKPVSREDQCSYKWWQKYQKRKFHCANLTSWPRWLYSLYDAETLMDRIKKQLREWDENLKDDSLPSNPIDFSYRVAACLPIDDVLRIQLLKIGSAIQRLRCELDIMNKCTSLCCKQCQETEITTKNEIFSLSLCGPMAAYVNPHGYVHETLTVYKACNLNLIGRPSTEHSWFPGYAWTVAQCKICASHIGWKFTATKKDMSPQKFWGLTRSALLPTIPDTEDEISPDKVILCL
Chain of IKZF1 (Q16531 whole entry partner): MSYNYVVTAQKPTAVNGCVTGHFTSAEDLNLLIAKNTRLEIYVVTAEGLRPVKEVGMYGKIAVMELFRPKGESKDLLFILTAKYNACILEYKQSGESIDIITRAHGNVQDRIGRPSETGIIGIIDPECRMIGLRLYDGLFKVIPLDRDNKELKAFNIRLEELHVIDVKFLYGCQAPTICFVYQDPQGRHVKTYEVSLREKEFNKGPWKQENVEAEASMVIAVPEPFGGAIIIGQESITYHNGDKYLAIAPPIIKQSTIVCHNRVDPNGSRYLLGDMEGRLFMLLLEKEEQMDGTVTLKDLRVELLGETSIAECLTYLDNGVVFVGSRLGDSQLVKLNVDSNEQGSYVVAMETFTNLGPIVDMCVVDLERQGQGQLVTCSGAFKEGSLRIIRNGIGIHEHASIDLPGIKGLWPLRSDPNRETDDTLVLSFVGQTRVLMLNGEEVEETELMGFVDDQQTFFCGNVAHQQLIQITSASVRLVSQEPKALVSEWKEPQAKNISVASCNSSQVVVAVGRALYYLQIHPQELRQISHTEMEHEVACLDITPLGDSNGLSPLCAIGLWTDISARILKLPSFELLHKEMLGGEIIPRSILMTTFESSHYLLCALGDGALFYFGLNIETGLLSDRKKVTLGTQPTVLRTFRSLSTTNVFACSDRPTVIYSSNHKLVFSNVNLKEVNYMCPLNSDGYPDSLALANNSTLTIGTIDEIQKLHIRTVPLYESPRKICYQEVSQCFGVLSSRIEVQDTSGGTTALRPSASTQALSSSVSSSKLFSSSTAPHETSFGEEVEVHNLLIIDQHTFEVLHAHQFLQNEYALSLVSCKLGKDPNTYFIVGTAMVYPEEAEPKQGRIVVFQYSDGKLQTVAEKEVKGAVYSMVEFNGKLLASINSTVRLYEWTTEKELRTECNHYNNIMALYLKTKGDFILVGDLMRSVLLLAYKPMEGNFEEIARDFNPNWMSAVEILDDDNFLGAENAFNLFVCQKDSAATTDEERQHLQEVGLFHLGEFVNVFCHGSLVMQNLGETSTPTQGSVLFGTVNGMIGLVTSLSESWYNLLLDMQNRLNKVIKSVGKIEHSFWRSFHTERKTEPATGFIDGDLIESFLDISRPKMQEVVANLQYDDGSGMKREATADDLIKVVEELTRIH
Procedure, shortened: as §1

IKZF3 = IKZF3 (Homo sapiens (Human), UniProt Q96SW2+Q9UKT9); assay: Western blot, substrate protein expression in hPBMC: IKZF3; format: cell-based; conditions: hPBMC, compound 500 nM, 24 hours, Western blot
Chain of IKZF3 (Q9UKT9 whole entry): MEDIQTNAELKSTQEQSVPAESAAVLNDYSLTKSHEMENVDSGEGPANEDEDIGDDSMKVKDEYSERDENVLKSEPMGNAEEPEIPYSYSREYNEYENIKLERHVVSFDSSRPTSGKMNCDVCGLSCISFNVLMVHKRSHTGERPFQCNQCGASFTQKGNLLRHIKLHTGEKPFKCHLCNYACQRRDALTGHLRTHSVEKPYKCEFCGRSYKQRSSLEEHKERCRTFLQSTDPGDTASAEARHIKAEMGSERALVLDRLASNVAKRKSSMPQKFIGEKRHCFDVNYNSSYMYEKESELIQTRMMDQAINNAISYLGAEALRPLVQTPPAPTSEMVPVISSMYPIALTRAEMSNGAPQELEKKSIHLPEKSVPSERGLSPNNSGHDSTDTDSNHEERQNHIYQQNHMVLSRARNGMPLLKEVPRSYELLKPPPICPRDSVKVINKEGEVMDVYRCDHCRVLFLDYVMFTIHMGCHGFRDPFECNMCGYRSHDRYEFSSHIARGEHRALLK
Chain of IKZF3 (Q96SW2 whole entry): as the sequence (Q96SW2 whole entry) above
Chain of IKZF3 (Q16531 whole entry partner): as the sequence (Q16531 whole entry partner) above
Procedure, shortened: as §1

[1] = biological target: human Cereblon WT GST-tagged protein (Homo sapiens (Human), UniProt Q96SW2); assay: CRBN-binding affinity, HTRF (CEREBLON BINDING kit, CISBIO); conditions: HTRF inhibitory activity
Chain of human Cereblon WT GST-tagged protein (Q96SW2 whole entry): as the sequence (Q96SW2 whole entry) above
Procedure, shortened: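 HTRF competition format: test compound displaces Thalidomide-Red from GST-tagged human Cereblon WT, detected with a Eu-labelled anti-GST antibody. Percent CRBN binding inhibition was derived from the 620 nm signal, normalized to solvent-control and protein-free blank wells.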

Chain of GSPT1 (P15170 whole entry): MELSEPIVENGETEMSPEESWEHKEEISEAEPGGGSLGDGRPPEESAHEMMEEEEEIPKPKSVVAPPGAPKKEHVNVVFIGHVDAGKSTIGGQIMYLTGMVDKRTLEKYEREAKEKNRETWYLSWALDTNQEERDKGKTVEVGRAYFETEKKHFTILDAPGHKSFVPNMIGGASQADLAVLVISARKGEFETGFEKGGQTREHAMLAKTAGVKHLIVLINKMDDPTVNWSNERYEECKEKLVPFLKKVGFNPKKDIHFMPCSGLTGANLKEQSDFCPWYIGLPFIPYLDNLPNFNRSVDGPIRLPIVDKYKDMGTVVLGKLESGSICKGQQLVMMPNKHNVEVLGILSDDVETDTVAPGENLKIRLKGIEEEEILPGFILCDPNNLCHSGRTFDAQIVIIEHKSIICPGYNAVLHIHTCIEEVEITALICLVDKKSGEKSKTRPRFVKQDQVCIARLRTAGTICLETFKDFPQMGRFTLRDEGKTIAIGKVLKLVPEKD
Chain of GSPT1 (Q96SW2 whole entry): as the sequence (Q96SW2 whole entry) above
Chain of GSPT1 (Q16531 whole entry partner): as the sequence (Q16531 whole entry partner) above

Structure (SMILES)	substrate protein remaining % GSPT1 (GSPT1)	substrate protein remaining % IKZF1 (IKZF1)	substrate protein remaining % IKZF3 (IKZF3)	IC50 [1] [nM]
O=C1CCC(N2Cc3cc(CN4CCC5(CCN(C(c6ccccc6)c6ccccc6)CC5)C4)c(F)cc3C2=O)C(=O)N1 (stereo not drawn) [GT-05971, 3-(5-((8-benzhydryl-2,8-diazaspiro[4.5]decan-2-yl)methyl)-6-fluoro-1-oxoisoindolin-2-yl)piperidine-2,6-dione]	A (A represents 0% ≤ substrate protein remaining % ≤ 50%)	B (B represents substrate protein remaining % > 50%)	B (B represents substrate protein remaining % > 50%)	1000 to 1900
O=C1CCC(N2Cc3c(CN4CCC5(CCN(C(c6ccccc6)c6ccccc6)CC5)C4)cccc3C2=O)C(=O)N1 (stereo not drawn) [GT-05973, 3-(4-((8-benzhydryl-2,8-diazaspiro[4.5]decan-2-yl)methyl)-1-oxoisoindolin-2-yl)piperidine-2,6-dione]	A (A represents 0% ≤ substrate protein remaining % ≤ 50%)	B (B represents substrate protein remaining % > 50%)	A (A represents 0% ≤ substrate protein remaining % ≤ 50%)	1000 to 1900
O=C1CCC(N2C(=O)c3ccc(N4CC5CCC4CN5C(c4ccccc4)c4ccccc4)cc3C2=O)C(=O)N1 (stereo not drawn) [GT-05976, 5-(5-benzhydryl-2,5-diazabicyclo[2.2.2]octan-2-yl)-2-(2,6-dioxopiperidin-3-yl) isoindoline-1,3-dione]	A (A represents 0% ≤ substrate protein remaining % ≤ 50%)	B (B represents substrate protein remaining % > 50%)	B (B represents substrate protein remaining % > 50%)	< 500
O=C1CCC(N2Cc3cc(C(=O)N4CC5CCC(C4)N5C(c4ccccc4)c4ccccc4)ccc3C2=O)C(=O)N1 (stereo not drawn) [GT-05980, 3-(5-(8-benzhydryl-3,8-diazabicyclo[3.2.1]octane-3-carbonyl)-1-oxoisoindolin-2-yl)piperidine-2,6-dione]	A (A represents 0% ≤ substrate protein remaining % ≤ 50%)	A (A represents 0% ≤ substrate protein remaining % ≤ 50%)	B (B represents substrate protein remaining % > 50%)	500 to 1000
O=C1CCC(N2Cc3cc(C(=O)N4CCN(C5c6ccccc6-c6ccccc65)CC4)ccc3C2=O)C(=O)N1 (stereo not drawn) [GT-05986, 3-(5-(4-(9H-fluoren-9-yl)piperazine-1-carbonyl)-1-oxoisoindolin-2-yl)piperidine-2,6-dione]	A (A represents 0% ≤ substrate protein remaining % ≤ 50%)	B (B represents substrate protein remaining % > 50%)	B (B represents substrate protein remaining % > 50%)	< 500
O=C1CCC(N2Cc3cc(C(=O)N4CC5(CCN(C(c6ccccc6)c6ccccc6)CC5)C4)ccc3C2=O)C(=O)N1 (stereo not drawn) [GT-05988, 3-(5-(7-benzhydryl-2,7-diazaspiro[3.5]nonane-2-carbonyl)-1-oxoisoindolin-2-yl)piperidine-2,6-dione]	A (A represents 0% ≤ substrate protein remaining % ≤ 50%)	B (B represents substrate protein remaining % > 50%)	B (B represents substrate protein remaining % > 50%)	< 500
O=C1CCC(N2Cc3c(CN4CCC5(CC4)CCN(C(c4ccccc4)c4ccccc4)CC5)cccc3C2=O)C(=O)N1 (stereo not drawn) [GT-06027, 3-(4-((9-benzhydryl-3,9-diazaspiro[5.5]undecan-3-yl)methyl)-1-oxoisoindolin-2-yl)piperidine-2,6-dione]	A (A represents 0% ≤ substrate protein remaining % ≤ 50%)	B (B represents substrate protein remaining % > 50%)	B (B represents substrate protein remaining % > 50%)	1000 to 1900
O=C1CCC(N2Cc3c(ccc(CN4CC5CN(C(c6ccccc6)c6ccccc6)CC5C4)c3F)C2=O)C(=O)N1 (stereo not drawn) [GT-06044, 3-(5-((5-benzhydrylhexahydropyrrolo[3,4-c]pyrrol-2 (1H)-yl)methyl)-4-fluoro-1-oxoisoindolin-2-yl)piperidine-2,6-dione]	A (A represents 0% ≤ substrate protein remaining % ≤ 50%)	B (B represents substrate protein remaining % > 50%)	A (A represents 0% ≤ substrate protein remaining % ≤ 50%)	< 500
O=C1CCC(N2Cc3cc(CN4CC5CN(C(c6ccccc6)c6ccccc6)CC5C4)cc(F)c3C2=O)C(=O)N1 (stereo not drawn) [GT-06045, 3-(5-((5-benzhydrylhexahydropyrrolo[3,4-c]pyrrol-2 (1H)-yl)methyl)-7-fluoro-1-oxoisoindolin-2-yl)piperidine-2,6-dione]	A (A represents 0% ≤ substrate protein remaining % ≤ 50%)	B (B represents substrate protein remaining % > 50%)	B (B represents substrate protein remaining % > 50%)	< 500
C[C@@H]1CN(C(c2ccccc2)c2ccccc2)CCN1Cc1cc2c(cc1F)C(=O)N(C1CCC(=O)NC1=O)C2 (stereo partly drawn) [GT-06046, 3-(5-(((R)-4-benzhydryl-2-methylpiperazin-1-yl)methyl)-6-fluoro-1-oxoisoindolin-2-yl)piperidine-2,6-dione]	A (A represents 0% ≤ substrate protein remaining % ≤ 50%)	B (B represents substrate protein remaining % > 50%)	B (B represents substrate protein remaining % > 50%)	500 to 1000
O=C1CCC(N2Cc3cc(CN4CCN(C5c6cc(Cl)ccc6-c6ccc(Cl)cc65)CC4)ccc3C2=O)C(=O)N1 (stereo not drawn) [GT-06048, 3-(5-((4-(2,7-dichloro-9H-fluoren-9-yl)piperazin-1-yl)methyl)-1-oxoisoindolin-2-yl)piperidine-2,6-dione]	A (A represents 0% ≤ substrate protein remaining % ≤ 50%)	A (A represents 0% ≤ substrate protein remaining % ≤ 50%)	A (A represents 0% ≤ substrate protein remaining % ≤ 50%)	< 500
O=C1CCC(N2Cc3cc(CN4CC5CN(C(c6ccccc6)c6ccccc6)CC5C4)ccc3C2=O)C(=O)N1 (stereo not drawn) [GT-06050, 3-(5-((5-benzhydrylhexahydropyrrolo[3,4-c]pyrrol-2 (1H)-yl)methyl)-1-oxoisoindolin-2-yl)piperidine-2,6-dione]	A (A represents 0% ≤ substrate protein remaining % ≤ 50%)	B (B represents substrate protein remaining % > 50%)	B (B represents substrate protein remaining % > 50%)	< 500
